“And” between values parts separate entries of the source, which are not always exact repeats. Equal entries are not always repeated. Inconclusive results and toxic doses are left out. No stated cut-off is given here; in the data, active means T/C of 150% or more; inactive means T/C below 125%.
System: L1210 leukemia ip in BDF1 mice, survival T/C
Assay: NCI In Vivo Anticancer Drug Screen. Data for tumor model L1210 Leukemia (intraperitoneal) in B6D2F1 (BDF1) mice
Conditions: endpoint: mean survival time, higher = longer survival
Procedure, shortened: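 Read-out is survival time, reported as the treated-group measurement over the vehicle-control measurement.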

[1] = dose: 100.0 mg/kg/injection, schedule: Q01DX009 (ip), vehicle: Klucel (hydroxypropylcellulose) (HPC)
[2] = dose: 200.0 mg/kg/injection, schedule: Q01DX009 (ip), vehicle: Klucel (hydroxypropylcellulose) (HPC)
[3] = dose: 400.0 mg/kg/injection, schedule: Q01DX009 (ip), vehicle: Klucel (hydroxypropylcellulose) (HPC)
[4] = dose: 100.0 mg/kg/injection, schedule: Q01DX009 (ip), vehicle: saline
[5] = dose: 200.0 mg/kg/injection, schedule: Q01DX009 (ip), vehicle: saline
[6] = dose: 100.0 mg/kg/injection, schedule: Q01DX009 (ip), vehicle: saline with Tween-80
[7] = dose: 100.0 mg/kg/injection, schedule: Q04DX003 (ip), vehicle: saline with Tween-80
[8] = dose: 200.0 mg/kg/injection, schedule: Q01DX009 (ip), vehicle: saline with Tween-80
[9] = dose: 200.0 mg/kg/injection, schedule: Q04DX003 (ip), vehicle: saline with Tween-80
[10] = dose: 400.0 mg/kg/injection, schedule: Q04DX003 (ip), vehicle: saline with Tween-80

Measured: T/C

CN(C)C(=S)Oc1c([N+](=O)[O-])cc([N+](=O)[O-])cc1C(C)(C)C
inactive: dose: 25.0 mg/kg/injection, schedule: Q04DX002 (ip), vehicle: saline with Tween-80 86 % of control | dose: 50.0 mg/kg/injection, schedule: Q04DX002 (ip), vehicle: saline with Tween-80 86 % of control

CCOC(=O)C(C)CC(C)(C(=O)OCC)C(=O)OCC (configuration not stated)
inactive: dose: 25.0 mg/kg/injection, schedule: Q04DX003 (ip), vehicle: Klucel (hydroxypropylcellulose) (HPC) 98 % of control | dose: 50.0 mg/kg/injection, schedule: Q01DX009 (ip), vehicle: Klucel (hydroxypropylcellulose) (HPC) 93 % of control | dose: 50.0 mg/kg/injection, schedule: Q04DX003 (ip), vehicle: Klucel (hydroxypropylcellulose) (HPC) 103 % of control | [1] 104 % of control | dose: 100.0 mg/kg/injection, schedule: Q04DX003 (ip), vehicle: Klucel (hydroxypropylcellulose) (HPC) 98 % of control and 103 % of control | [2] 100 % of control

O=c1nc2n(CCO)c3ccccc3nc-2c(=O)[nH]1
inactive: dose: 25.0 mg/kg/injection, schedule: Q04DX002 (ip), vehicle: saline 100 % of control | dose: 50.0 mg/kg/injection, schedule: Q04DX002 (ip), vehicle: saline 106 % of control | dose: 100.0 mg/kg/injection, schedule: Q04DX002 (ip), vehicle: saline 95 % of control

COC(=O)c1cc(O)c(C(=O)OC)s1
inactive: [1] 101 % of control | [2] 98 % of control | [3] 95 % of control

O=NN(CCCl)C(=O)Nc1cccc(Cl)c1
inactive: dose: 2.28 mg/kg/injection, schedule: Q01DX001 (ip), vehicle: carboxymethylcellulose (CMC) 112 % of control | dose: 4.56 mg/kg/injection, schedule: Q01DX001 (ip), vehicle: carboxymethylcellulose (CMC) 116 % of control | dose: 125.0 mg/kg/injection, schedule: Q01DX001 (ip), vehicle: carboxymethylcellulose (CMC) 104 % of control
active: dose: 100.0 mg/kg/injection, schedule: Q01DX001 (ip), vehicle: carboxymethylcellulose (CMC) 160 % of control | dose: 150.0 mg/kg/injection, schedule: Q01DX001 (ip), vehicle: carboxymethylcellulose (CMC) 153 % of control | dose: 175.0 mg/kg/injection, schedule: Q01DX001 (ip), vehicle: carboxymethylcellulose (CMC) 156 % of control

C=CC1COC=C2CN3CCc4cc(OC)c(O)cc4C3CC21 (configuration not stated)
inactive: dose: 50.0 mg/kg/injection, schedule: Q01DX009 (ip), vehicle: saline 100 % of control | [4] 104 % of control | dose: 100.0 mg/kg/injection, schedule: Q04DX003 (ip), vehicle: saline 100 % of control | [5] 98 % of control | dose: 200.0 mg/kg/injection, schedule: Q04DX003 (ip), vehicle: saline 101 % of control | dose: 400.0 mg/kg/injection, schedule: Q04DX003 (ip), vehicle: saline 97 % of control

COC(=O)CCC#N
inactive: [4] 101 % of control | [5] 91 % of control | dose: 400.0 mg/kg/injection, schedule: Q01DX009 (ip), vehicle: saline 102 % of control

O=C1c2ccccc2C(=O)c2c(NC(=O)C(Cl)CCl)cccc21 (configuration not stated)
inactive: dose: 75.0 mg/kg/injection, schedule: Q01DX001 (ip), vehicle: saline 94 % of control | dose: 150.0 mg/kg/injection, schedule: Q01DX001 (ip), vehicle: saline 90 % of control and 92 % of control | dose: 300.0 mg/kg/injection, schedule: Q01DX001 (ip), vehicle: saline 97 % of control

COC(OC)c1nc(N)[nH]c(=O)c1Cc1ccc(C)c2ccccc12
inactive: [6] 96 % of control | [7] 103 % of control | [8] 90 % of control | [9] 97 % of control | dose: 400.0 mg/kg/injection, schedule: Q01DX009 (ip), vehicle: saline with Tween-80 90 % of control | [10] 92 % of control

S=P(c1ccccc1)(c1ccccc1)N1CCCCC1
inactive: dose: 100.0 mg/kg/injection, schedule: Q04DX002 (ip), vehicle: saline with Tween-80 96 % of control | dose: 200.0 mg/kg/injection, schedule: Q04DX002 (ip), vehicle: saline with Tween-80 93 % of control | dose: 400.0 mg/kg/injection, schedule: Q04DX002 (ip), vehicle: saline with Tween-80 93 % of control

O=C(O)Cc1ccc2c3c(ccc([N+](=O)[O-])c13)CC2
inactive: dose: 50.0 mg/kg/injection, schedule: Q01DX009 (ip), vehicle: saline with Tween-80 95 % of control | [6] 93 % of control | [7] 96 % of control | [8] 90 % of control | [9] 96 % of control

COC1OCC(N=[N+]=[N-])C(OC)C1O (configuration not stated)
inactive: [7] 100 % of control | [9] 100 % of control | [10] 98 % of control

CCOC(=O)C(Cc1c[nH]c2ccccc12)(NC=O)C(=O)OCC
inactive: [1] 91 % of control | [2] 100 % of control | [3] 91 % of control

Reference: PubChem BioAssay AID248 (DTP/NCI, 2004)
